Laboratory results as given in paper PMC11234452, “HydrogelFinder: A Foundation Model for Efficient Self‐Assembling Peptide Discovery Guided by Non‐Peptidal Small Molecules” (Advanced Science, 2024).
Residues, ends and D or L forms follow the SMILES beside them.

Key:
Type in all cases: physicochemical
[1] = Hydrogelation test, inverted tube method; details: for pH (of hydrogelation) / Conc. (hydrogelation concentration): 37 °C overnight; for Conc. (hydrogelation concentration): pH adjusted with NaOH or HCl
Procedure: We subsequently evaluated their gelation capability (Figure S2, Supporting Information). After purification by HPLC, the obtained compounds were dissolved in water and the pH of the solution was adjusted to trigger self‐assembly and hydrogelation.
Observing gel behavior in an inverted test tube is a rapid and facile approach to determine whether a dissolved peptide formed a gel.
All compounds were placed in a glass tube (diameter 10 mm) and first dissolved in D.I water, sonicated for 5 min and putted on ice for 30 min. Then added 2x PBS buffer (5.4 mM KCl, 20 mM Na2HPO4, 4 mM KH2PO4) or D.I water to reach the final concentration of 1.0 wt%. pH was adjusted with NaOH or HCl. The solutions were stored in 37 °C incubator overnight. Gelation was confirmed by the inverting method.

[2] = Oscillatory rheology, dynamic time sweep; details: 37 °C, 15 mm parallel geometry, gap 0.5 mm, G′ consistently higher than G″
Procedure: To further explore the gelation properties and self‐assembly behavior of the candidate self‐assembling molecules, we carried out a series of biophysical characterization experiments.
All rheological experiments were performed on an Anton Parr equipped with a steel 15 mm parallel geometry tool. […] To avoid dehydration, a layer of silicon oil was applied around the edge of the sample at the start of the measurement. Dynamic strain sweep experiments were performed to ensure that the time‐sweep data was collected in the linear regime of strain. The dynamic strain sweep was performed varying the strain from 0.1 to 100% at a constant frequency (6 rad s^−1).

[3] = TEM of hydrogel matrix, nanofiber width; details: uranyl formate stain, ImageJ, 30 measurements per picture
Procedure: These nanofibers were entangled with one another, forming a 3D‐network that comprised the hydrogel matrix (Figure 4B).
The sample was prepared by placing a drop of peptide solution on a 200‐mesh copper grid (Electron Microscopy China) and allowed to stand for 1.0 min, then blotted with filter paper. Subsequently a drop of 1.0% Uranyl Formate was placed on the grid and allowed to stand for 1–2 min, then blotted with a piece of filter paper and left to air dry. Images were taken with a JEOL JEM‐2100Plus at 80 kV accelerating voltage. By calculating the width of peptide, The image J was used to measure 30 times for 1 TEM picture, and to gather statistics with frequency.^[ [26] ^]

| pH (of hydrogelation) ([1]; buffer 1X PBS) | Conc. (hydrogelation concentration) ([1]; buffer 1X PBS) [wt%] | gelation outcome / gel appearance ([1]; in water, pH adjusted (2–12)) | Compound | storage modulus (G′) at equilibrium [2] | nanofiber width [3] | pH (of hydrogelation) ([1]; in water) | Conc. (hydrogelation concentration) ([1]; in water) [wt%] |
| --- | --- | --- | --- | --- | --- | --- | --- |
| 5.0 | 1.0 |  | NC(=O)[C@H](Cc1ccccc1)NC(=O)[C@H](CC(=O)O)NC(=O)CNC(=O)[C@H](CCC(=O)O)NC(=O)[C@H](Cc1ccccc1)NC(=O)[C@H](CCC(=O)O)NC(=O)[C@@H](N)Cc1c[nH]c2ccccc12 [compound 16] (H-WEFEGDF-NH2; N-terminus assumed) | 1254 Pa | 9–10 nm |  |  |
| 3.0 | 1.0 | opaque hydrogel | EYVRFF [compound 368, self-assembling peptide EYVRFF] |  |  |  |  |
|  |  |  | FFFVF‐NH2 [compound 322, self-assembling peptide FFFVF‐NH2] | 21,393 Pa | approximately 14 nm | 7.0 | 1.0 |
|  |  |  | FYGVF‐NH2 [compound 166, self-assembling peptide FYGVF‐NH2] |  | ~25 nm | 7.0 | 0.5 |

| Compound | pH (of hydrogelation) ([1]; buffer 1X PBS) | Conc. (hydrogelation concentration) ([1]; buffer 1X PBS) [wt%] | gelation outcome / gel appearance ([1]; in water, pH adjusted (2–12)) | storage modulus (G′) at equilibrium [2] | nanofiber width [3] | pH (of hydrogelation) ([1]; in water) | Conc. (hydrogelation concentration) ([1]; in water) [wt%] |
| --- | --- | --- | --- | --- | --- | --- | --- |
| VKVKAFIDDK [compound 560, self-assembling peptide […]] | 8.0 | 1.0 |  |  |  |  |  |
